We go through four molecules from patent publication US4393050A, “Analogs of extended N-terminal somatostatin” (The Salk Institute for Biological Studies, priority 1981, dated 1983).

Read-outs that look alike come from different tables or passages of the source. Residues, ends and D or L forms follow the SMILES beside them.

For experiment [1], the system named is cells of rat pituitary glands. In kind it is cell-based. As for the experimental part: To determine the effectiveness of the peptides to inhibit the release of growth hormone, in vitro radioimmunoassays are carried out using the SS-28 analogs in side-by-side comparison with equimolar concentrations of somotostatin-14 having a known effectiveness to inhibit the release of growth hormone induced by the application of isobutyl methyl xanthine to pituitary cells. Cultures are used which include cells of rat pituitary glands removed some four to five days previously in a system that minimizes enzymatic degradation, generally following the procedure set forth in Vale et al., Methods in Enzymology, Hormones and Cyclic Nucleotides (1975) Vol. 37, p. 82. Both cultures of a defined standard medium and cultures which are considered optimal for the secretion of growth hormone, as a result of having additions of either 2% or 10% of serum from a foetal calf, are used for the comparative testing.

A further experiment deals with glucagon secretion. It is filed as in vivo, rats. The method, then: (§1) In vivo experiments are carried out with the SS-28 analogs, using the procedure described in Brown et al., Metabolism (1976) Vol. 25, pp. 1501-1503, to determine the potency, relative to somatostatin-14 to inhibit the secretion of glucagon and insulin stimulated by the administration of arginine to groups of six rats.

The next experiment relates to insulin secretion. It is filed as in vivo, rats. As for the experimental part: as §1
For experiment [2] the following is noted: juvenile-type diabetics, complete absence of circulating insulin; cited from earlier work.
The mark [3] stands for this setting: rats, arginine-stimulated secretion, SS-14 = 1.

Turning to `CC(C)C[C@H](NC(=O)[C@H](C)NC(=O)[C@@H]1CCCN1C(=O)[C@H](CC(N)=O)NC(=O)[C@H](CO)NC(=O)[C@H](CC(N)=O)NC(=O)[C@H](C)NC(=O)[C@@H](N)CO)C(=O)N[C@@H](C)C(=O)N1CCC[C@H]1C(=O)N[C@@H](CCCNC(=N)N)C(=O)N[C@@H](CCC(=O)O)C(=O)N[C@@H](CCCNC(=N)N)C(=O)N[C@@H](CCCCN)C(=O)N[C@@H](C)C(=O)NCC(=O)N[C@H]1CSSC[C@@H](C(=O)O)NC(=O)[C@H](CO)NC(=O)[C@H]([C@@H](C)O)NC(=O)[C@H](Cc2ccc(O)cc2)NC(=O)[C@H]([C@@H](C)O)NC(=O)[C@H](CCCCN)NC(=O)[C@@H](Cc2c[nH]c3ccccc23)NC(=O)[C@H](Cc2ccccc2)NC(=O)[C@H](Cc2ccccc2)NC(=O)[C@H](CC(N)=O)NC(=O)[C@H](CCCCN)NC1=O` [Peptide 1, [Leu^8, D-Trp^22, Tyr^25]--SS-28] (HELM PEPTIDE1{S.A.N.S.N.P.A.L.A.P.R.E.R.K.A.G.C.K.N.F.F.[dW].K.T.Y.T.S.C}$PEPTIDE1,PEPTIDE1,17:R3-28:R3$$$V2.0), the “In Vitro Growth Hormone (potency to inhibit release, relative to SS-14)” value in experiment [1] is reported as 4.84.
On to `CSCC[C@H](NC(=O)[C@H](C)NC(=O)[C@@H]1CCCN1C(=O)[C@H](CC(N)=O)NC(=O)[C@H](CO)NC(=O)[C@H](CC(N)=O)NC(=O)[C@H](C)NC(=O)[C@@H](N)CO)C(=O)N[C@@H](C)C(=O)N1CCC[C@H]1C(=O)N[C@@H](CCCNC(=N)N)C(=O)N[C@@H](CCC(=O)O)C(=O)N[C@@H](CCCNC(=N)N)C(=O)N[C@@H](CCCCN)C(=O)N[C@@H](C)C(=O)NCC(=O)N[C@H]1CSSC[C@@H](C(=O)O)NC(=O)[C@@H](CO)NC(=O)[C@H]([C@@H](C)O)NC(=O)[C@H](Cc2ccccc2)NC(=O)[C@H]([C@@H](C)O)NC(=O)[C@H](CCCCN)NC(=O)[C@@H](Cc2c[nH]c3ccccc23)NC(=O)[C@H](Cc2ccccc2)NC(=O)[C@H](Cc2ccccc2)NC(=O)[C@H](CCCCN)NC1=O` [Peptide 3, desAsn^19 [D-Trp^22, D-Ser^27]--SS-28] (HELM PEPTIDE1{S.A.N.S.N.P.A.M.A.P.R.E.R.K.A.G.C.K.F.F.[dW].K.T.F.T.[dS].C}$PEPTIDE1,PEPTIDE1,17:R3-27:R3$$$V2.0), for which the “In Vivo Glugacon (potency to inhibit secretion, relative to SS-14)” value in the experiment on glucagon secretion (rat, in vivo) is 1. For the same molecule, the “In Vivo Insulin (potency to inhibit secretion, relative to SS-14)” value in the experiment on insulin secretion (rat, in vivo) is listed as 145. Besides, the “In Vitro Growth Hormone (potency to inhibit release, relative to SS-14)” value in experiment [1] was found to be 0.1.
`CSCC[C@H](NC(=O)[C@H](C)NC(=O)[C@@H]1CCCN1C(=O)[C@H](CC(N)=O)NC(=O)[C@H](CO)NC(=O)[C@H](CC(N)=O)NC(=O)[C@H](C)NC(=O)[C@@H](N)CO)C(=O)N[C@@H](C)C(=O)N1CCC[C@H]1C(=O)N[C@@H](CCCNC(=N)N)C(=O)N[C@@H](CCC(=O)O)C(=O)N[C@@H](CCCNC(=N)N)C(=O)N[C@@H](CCCCN)C(=O)N[C@@H](C)C(=O)NCC(=O)N[C@H]1CSSC[C@H](C(=O)O)NC(=O)[C@H](CO)NC(=O)[C@H](Cc2ccccc2)NC(=O)[C@H]([C@@H](C)O)NC(=O)[C@H](CCCCN)NC(=O)[C@@H](Cc2c[nH]c3ccccc23)NC(=O)[C@H](Cc2ccccc2)NC(=O)[C@H](Cc2ccccc2)NC1=O` [Peptide 4, desAA^18,19,26 [D-Trp^22,D-Cys^28]--SS-28] (HELM PEPTIDE1{S.A.N.S.N.P.A.M.A.P.R.E.R.K.A.G.C.F.F.[dW].K.T.F.S.[dC]}$PEPTIDE1,PEPTIDE1,17:R3-25:R3$$$V2.0): the “In Vivo Glugacon (potency to inhibit secretion, relative to SS-14)” value in the experiment with glucagon secretion (rat, in vivo) worked out at 14. The “In Vivo Insulin (potency to inhibit secretion, relative to SS-14)” value in the experiment on insulin secretion (rat, in vivo) was 18. Also, the “In Vitro Growth Hormone (potency to inhibit release, relative to SS-14)” value in experiment [1] turned out to be 1.51.
Regarding `C[C@H](N)C(=O)NCC(=O)N[C@H]1CSSC[C@@H](C(=O)O)NC(=O)[C@H](CO)NC(=O)[C@H]([C@@H](C)O)NC(=O)[C@H](Cc2ccccc2)NC(=O)[C@H]([C@@H](C)O)NC(=O)[C@H](CCCCN)NC(=O)[C@H](Cc2c[nH]c3ccccc23)NC(=O)[C@H](Cc2ccccc2)NC(=O)[C@H](Cc2ccccc2)NC(=O)[C@H](CC(N)=O)NC(=O)[C@H](CCCCN)NC1=O` [SS-14, somatostatin], the “In Vivo Glugacon (potency to inhibit secretion, relative to SS-14)” value in the experiment on glucagon secretion (setting [3]) is 1. For the same molecule, the “In Vivo Insulin (potency to inhibit secretion, relative to SS-14)” value in the experiment on insulin secretion (setting [3]) is recorded as 1. Further, in experiment [2], the “diminution of fasting hyperglycemia” value is recorded as no more than 50%. In experiment [1] (rat pituitary cell cultures, isobutyl methyl xanthine-induced GH release, SS-14 = 1), the “In Vitro Growth Hormone (potency to inhibit release, relative to SS-14)” value was determined as 1.
